Source: patent publication US11053204B2, “Pyrimidinyloxy benzene derivatives as herbicides” (FMC Corporation, priority 2015, dated 2021)

Columns and labels:
Type in all cases: in vivo
[1] = system: johnsongrass (Sorghum halepense); assay: Test C preemergence, plant response rating
[2] = system: barnyardgrass (Echinochloa crus-galli); assay: Test C preemergence, plant response rating; conditions: Preemergence
[3] = system: pigweed, palmer (palmer pigweed, Amaranthus palmeri); assay: Test C preemergence, plant response rating
[4] = system: nightshade (eastern black nightshade, Solanum ptycanthum); assay: Test C preemergence, plant response rating
[5] = system: wild poinsettia (Euphorbia heterophylla); assay: Test C preemergence, plant response rating
[6] = system: windgrass (Apera spica-venti); assay: Test C preemergence, plant response rating
[7] = system: Canada thistle (Cirsium arvense); assay: Test C postemergence, plant response rating; conditions: for Canada Thistle plant response rating: scale 0 to 100 (0 no effect, 100 complete control)
How it was run: (§1)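 Both timings shared one formulation, a non-phytotoxic solvent mixture with surfactant, and a greenhouse period of 13 to 15 d. Preemergence used seeded loam/sand or silt loam soil, postemergence used 2 to 18 cm plants; visual ratings ran from 0 (no effect) to 100 (complete control).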

[8] = system: buckwheat, wild (wild buckwheat, Polygonum convolvulus); assay: Test C postemergence, plant response rating; conditions: for Buckwheat, Wild plant response rating: scale 0 to 100 (0 no effect, 100 complete control)
How it was run: as §1

[9] = system: field poppy (Papaver rhoeas); assay: Test C postemergence, plant response rating; conditions: for Field Poppy plant response rating: scale 0 to 100 (0 no effect, 100 complete control)
How it was run: as §1

[10] = system: field violet (Viola arvensis); assay: Test C postemergence, plant response rating; conditions: for Field Violet plant response rating: scale 0 to 100 (0 no effect, 100 complete control)
How it was run: as §1

[11] = system: geranium, cutleaf (cutleaf geranium, Geranium dissectum); assay: Test C postemergence, plant response rating; conditions: for Geranium, Cutleaf plant response rating: scale 0 to 100 (0 no effect, 100 complete control)
How it was run: as §1

[12] = system: johnsongrass (Sorghum halepense); assay: Test C postemergence, plant response rating; conditions: for Johnsongrass plant response rating: scale 0 to 100 (0 no effect, 100 complete control)
How it was run: as §1

[13] = system: nightshade (eastern black nightshade, Solanum ptycanthum); assay: Test C postemergence, plant response rating; conditions: for Nightshade plant response rating: scale 0 to 100 (0 no effect, 100 complete control)
How it was run: as §1

[14] = system: pigweed, palmer (palmer pigweed, Amaranthus palmeri); assay: Test C postemergence, plant response rating; conditions: for Pigweed, Palmer plant response rating: scale 0 to 100 (0 no effect, 100 complete control)
How it was run: as §1

[15] = system: speedwell (bird's-eye speedwell, Veronica persica); assay: Test C postemergence, plant response rating; conditions: for Speedwell plant response rating: scale 0 to 100 (0 no effect, 100 complete control)
How it was run: as §1

[16] = system: surinam grass (Brachiaria decumbens); assay: Test C postemergence, plant response rating
How it was run: as §1

[17] = system: wild mustard (Sinapis arvensis); assay: Test C postemergence, plant response rating; conditions: for Mustard, Wild plant response rating: scale 0 to 100 (0 no effect, 100 complete control)
How it was run: as §1

[18] = system: wild poinsettia (Euphorbia heterophylla); assay: Test C postemergence, plant response rating; conditions: for Poinsettia, Wild plant response rating: scale 0 to 100 (0 no effect, 100 complete control)
How it was run: as §1

[19] = system: windgrass (Apera spica-venti); assay: Test C postemergence, plant response rating
How it was run: as §1

[20] = 125 g ai/ha, scale 0 to 100 (0 no effect, 100 complete control)

## O=C(CCCCC(F)(F)F)c1c(Br)cccc1Oc1ncc(Cl)cn1 [Compound 82]
[1]; 31 g ai/ha, scale 0 to 100
  Plant response rating, Johnsongrass: 5
[1]; 62 g ai/ha, scale 0 to 100
  Plant response rating, Johnsongrass: 40
[1]; 125 g ai/ha, scale of 0 to 100
  Plant response rating, Johnsongrass: 85
[2]; 125 g ai/ha, scale of 0 to 100
  Plant response rating, Barnyardgrass: 90
[2]; 16 g ai/ha, scale 0 to 100
  Plant response rating, Barnyardgrass: 5
[2]; 31 g ai/ha, scale 0 to 100
  Plant response rating, Barnyardgrass: 5
[2]; 62 g ai/ha, scale 0 to 100
  Plant response rating, Barnyardgrass: 20
[3]; 31 g ai/ha, scale 0 to 100
  Plant response rating, Pigweed, Palmer: 85
[3]; 62 g ai/ha, scale 0 to 100
  Plant response rating, Pigweed, Palmer: 100
[3]; 125 g ai/ha, scale of 0 to 100
  Plant response rating, Pigweed, Palmer: 100
[4]; 31 g ai/ha, scale 0 to 100
  Plant response rating, Nightshade: 20
[4]; 62 g ai/ha, scale 0 to 100
  Plant response rating, Nightshade: 40
[4]; 125 g ai/ha, scale of 0 to 100
  Plant response rating, Nightshade: 85
[5]; 31 g ai/ha, scale 0 to 100
  Plant response rating, Poinsettia, Wild: 0
[5]; 62 g ai/ha, scale 0 to 100
  Plant response rating, Poinsettia, Wild: 0
[5]; 125 g ai/ha, scale of 0 to 100
  Plant response rating, Poinsettia, Wild: 20
[6]; 31 g ai/ha, scale 0 to 100
  Plant response rating, Windgrass: 30
[6]; 62 g ai/ha, scale 0 to 100
  Plant response rating, Windgrass: 80
[6]; 125 g ai/ha, scale of 0 to 100
  Plant response rating, Windgrass: 90
[7]; 16 g ai/ha, scale of 0 to 100
  Plant response rating, Canada Thistle: 85
[7]; 31 g ai/ha, scale 0 to 100
  Plant response rating, Canada Thistle: 85
[7]; 62 g ai/ha
  Canada Thistle plant response rating: 85
[7]; 125 g ai/ha
  Canada Thistle plant response rating: 98
[8]; 16 g ai/ha, scale of 0 to 100
  Plant response rating, Buckwheat, Wild: 80
[8]; 31 g ai/ha, scale 0 to 100
  Plant response rating, Buckwheat, Wild: 70
[8]; 62 g ai/ha
  Buckwheat, Wild plant response rating: 100
[8]; 125 g ai/ha
  Buckwheat, Wild plant response rating: 100
[9]; 16 g ai/ha, scale of 0 to 100
  Plant response rating, Field Poppy: 50
[9]; 31 g ai/ha, scale 0 to 100
  Plant response rating, Field Poppy: 85
[9]; 62 g ai/ha
  Field Poppy plant response rating: 100
[9]; 125 g ai/ha
  Field Poppy plant response rating: 100
[10]; 16 g ai/ha, scale of 0 to 100
  Plant response rating, Field Violet: 60
[10]; 31 g ai/ha, scale 0 to 100
  Plant response rating, Field Violet: 70
[10]; 62 g ai/ha
  Field Violet plant response rating: 90
[10]; 125 g ai/ha
  Field Violet plant response rating: 90
[11]; 16 g ai/ha, scale of 0 to 100
  Plant response rating, Geranium, Cutleaf: 30
[11]; 31 g ai/ha, scale 0 to 100
  Plant response rating, Geranium, Cutleaf: 30
[11]; 62 g ai/ha
  Geranium, Cutleaf plant response rating: 40
[11]; 125 g ai/ha
  Geranium, Cutleaf plant response rating: 60
[12]; 16 g ai/ha, scale of 0 to 100
  Plant response rating, Johnsongrass: 5
[12]; 31 g ai/ha, scale 0 to 100
  Plant response rating, Johnsongrass: 20
[12]; 62 g ai/ha
  Johnsongrass plant response rating: 10
[12]; 125 g ai/ha
  Johnsongrass plant response rating: 30
[13]; 16 g ai/ha, scale of 0 to 100
  Plant response rating, Nightshade: 85
[13]; 31 g ai/ha, scale 0 to 100
  Plant response rating, Nightshade: 80
[13]; 62 g ai/ha
  Nightshade plant response rating: 95
[13]; 125 g ai/ha
  Nightshade plant response rating: 100
[14]; 16 g ai/ha, scale of 0 to 100
  Plant response rating, Pigweed, Palmer: 75
[14]; 31 g ai/ha, scale 0 to 100
  Plant response rating, Pigweed, Palmer: 80
[14]; 62 g ai/ha
  Pigweed, Palmer plant response rating: 98
[14]; 125 g ai/ha
  Pigweed, Palmer plant response rating: 98
[15]; 16 g ai/ha, scale of 0 to 100
  Plant response rating, Speedwell: 75
[15]; 31 g ai/ha, scale 0 to 100
  Plant response rating, Speedwell: 85
[15]; 62 g ai/ha
  Speedwell plant response rating: 95
[15]; 125 g ai/ha
  Speedwell plant response rating: 95
[16]; 16 g ai/ha, scale of 0 to 100
  Plant response rating, Surinam Grass: 20
[16]; 31 g ai/ha, scale 0 to 100
  Plant response rating, Surinam Grass: 20
[16]; [20]
  Surinam Grass plant response rating: 25
[17]; 16 g ai/ha, scale of 0 to 100
  Plant response rating, Mustard, Wild: 95
[17]; 31 g ai/ha, scale 0 to 100
  Plant response rating, Mustard, Wild: 95
[17]; 62 g ai/ha
  Mustard, Wild plant response rating: 100
[17]; 125 g ai/ha
  Mustard, Wild plant response rating: 100
[18]; 16 g ai/ha, scale of 0 to 100
  Plant response rating, Poinsettia, Wild: 40
[18]; 31 g ai/ha, scale 0 to 100
  Plant response rating, Poinsettia, Wild: 65
[18]; 62 g ai/ha
  Poinsettia, Wild plant response rating: 85
[18]; 125 g ai/ha
  Poinsettia, Wild plant response rating: 75
[19]; 16 g ai/ha, scale of 0 to 100
  Plant response rating, Windgrass: 10
[19]; 31 g ai/ha, scale 0 to 100
  Plant response rating, Windgrass: 35
[19]; [20]
  Windgrass plant response rating: 35
